This experiment deals with hTRPV3 (Homo sapiens (Human), UniProt Q8NET8). In words: Whole-cell patch clamp, hTRPV3 Phase 1 / Phase 2 currents. The class given is cell-based. The procedure, abridged: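 Whole-cell recordings on induced TRPV3 cells replated on coverslips, held at −40 mV with 400 ms ramps from −120 to +100 mV every 5 s; currents read at −80 and +80 mV. Ringer's external solution; current activated by heating to ≥28 °C or 20 μM 2-APB.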

Where [1] appears, read: Phase 1 current, inward, whole-cell patch clamp, read-out: hTRPV3 Patch P1 Inwd.
Setting [2] is: Phase 1 current, read-out: hTRPV3 (nM) (Phase 1).
Setting [3] is: Phase 2 current, inward, whole-cell patch clamp, read-out: hTRPV3 Patch P2 Inwd.
Where [4] appears, read: Phase 2 current, read-out: hTRPV3 (nM) (Phase 2).

Structures are written as SMILES. Where two headings read alike, the source gives them in different places.

Chain of hTRPV3 (Q8NET8 whole entry): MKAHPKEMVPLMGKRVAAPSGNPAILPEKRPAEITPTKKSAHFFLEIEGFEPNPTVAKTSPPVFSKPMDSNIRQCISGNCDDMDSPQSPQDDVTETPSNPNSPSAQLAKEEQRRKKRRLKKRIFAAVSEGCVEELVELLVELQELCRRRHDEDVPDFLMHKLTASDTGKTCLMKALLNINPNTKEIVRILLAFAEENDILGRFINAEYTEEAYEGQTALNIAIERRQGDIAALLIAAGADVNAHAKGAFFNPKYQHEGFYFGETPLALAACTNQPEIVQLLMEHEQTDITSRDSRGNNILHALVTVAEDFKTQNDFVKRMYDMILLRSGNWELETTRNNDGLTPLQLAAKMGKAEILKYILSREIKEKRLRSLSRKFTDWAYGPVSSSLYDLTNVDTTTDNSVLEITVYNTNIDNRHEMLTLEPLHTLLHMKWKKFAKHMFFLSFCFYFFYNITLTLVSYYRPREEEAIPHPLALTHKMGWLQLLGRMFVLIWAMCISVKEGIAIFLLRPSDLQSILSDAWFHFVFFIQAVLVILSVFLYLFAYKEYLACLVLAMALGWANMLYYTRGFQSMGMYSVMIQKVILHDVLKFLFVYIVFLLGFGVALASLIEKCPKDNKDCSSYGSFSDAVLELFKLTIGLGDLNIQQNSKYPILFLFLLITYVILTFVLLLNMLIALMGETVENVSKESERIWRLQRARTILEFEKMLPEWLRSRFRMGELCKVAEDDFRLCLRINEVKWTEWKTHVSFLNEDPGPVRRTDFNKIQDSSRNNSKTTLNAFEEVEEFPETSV

As to `OCCc1cc(C(O)c2cccc(Cl)c2)ccc1N1CC[C@H](Oc2ncccc2Cl)C1` (stereo partly drawn) [Compound 1-329, 2-(5-((3-chlorophenyl)(hydroxy)methyl)-2-((S)-3-(3-chloropyridin-2-yloxy)pyrrolidin-1-yl)phenyl)ethanol], the IC50 under setting [1] was more than 1000 nM and the IC50 under setting [2] amounted to 3100 nM.
Taken in the same sequence, the figures for `CC(C)c1ccccc1Oc1ccc(N2CC[C@H](Oc3ncccc3F)C2)c(CCO)c1` [Compound 1-331, (S)-2-(2-(3-(3-fluoropyridin-2-yloxy)pyrrolidin-1-yl)-5-(2-isopropylphenoxy)phenyl)ethanol] were 10 to 100 nM and 28 nM.
With `O=C(c1ccc(N2CC[C@H](Oc3ccccn3)C2)c(CO)c1)c1ccccc1Cl` [Compound 1-332, (S)-(2-chlorophenyl)(3-(hydroxymethyl)-4-(3-(pyridin-2-yloxy)pyrrolidin-1-yl)phenyl) methanone], the IC50 under setting [1] is more than 1000 nM, the IC50 under setting [2] is more than 3200 nM, the IC50 under setting [3] is more than 1000 nM and the IC50 under setting [4] was more than 3200 nM.
As to `OCc1cc(Oc2ccccc2F)ccc1N1CC[C@H](Oc2ccccn2)C1` [Compound 1-333], the IC50 was 100 to 1000 nM under setting [1], 207 nM under setting [2], 100 to 1000 nM under setting [3] and 111 nM under setting [4].
With `OCCc1cc(Oc2ccccc2F)ccc1N1CC[C@H](Oc2ccccn2)C1` [Compound 1-334], the IC50 reads like this: under setting [1], 100 to 1000 nM; under setting [2], 289 nM; under setting [3], 100 to 1000 nM; under setting [4], approximately 243 nM.
Regarding `CCc1ccccc1Oc1ccc(N2CC[C@H](Oc3ccccn3)C2)c(CCO)c1` [Compound 1-335], the IC50 is 10 to 100 nM under setting [1] and 66.3 nM under setting [2].
With `COc1ccccc1Oc1ccc(N2CC[C@H](Oc3ccc(F)cn3)C2)c(CO)c1` [Compound 1-336, (S)-(2-(3-(5-fluoropyridin-2-yloxy)pyrrolidin-1-yl)-5-(2-methoxyphenoxy)phenyl)methanol], the IC50 by setting is: under setting [1], 100 to 1000 nM; under setting [2], 329 nM; under setting [3], 100 to 1000 nM; under setting [4], 384 nM.
Take `CN(C(=O)c1ccc(N2CC[C@H](Oc3ncccc3Cl)C2)c(CCO)c1)c1ccccc1` [Compound 1-337, (S)-4-(3-(3-chloropyridin-2-yloxy)pyrrolidin-1-yl)-3-(2-hydroxyethyl)-N-methyl-N-phenylbenzamide]: the IC50 runs as follows: under setting [1], more than 1000 nM; under setting [2], more than 3200 nM.
For `OCc1cc(C(O)c2ccccc2Cl)ccc1N1CC[C@H](Oc2ccccn2)C1` (stereo partly drawn) [Compound 1-338, (2-chlorophenyl)(3-(hydroxymethyl)-4-((S)-3-(pyridin-2-yloxy)pyrrolidin-1-yl)phenyl)methanol] the same measures were 100 to 1000 nM and 196 nM.
With `COc1ccccc1Oc1ccc(N2CC[C@H](Oc3ccccn3)C2)c(CO)c1` [Compound 1-339, (S)-(5-(2-methoxyphenoxy)-2-(3-(pyridin-2-yloxy)pyrrolidin-1-yl)phenyl)methanol], the IC50 runs as follows: under setting [1], 100 to 1000 nM; under setting [2], 521 nM.
With `COCc1ccccc1Oc1ccc(N2CC[C@H](Oc3ccc(F)cn3)C2)c(CCO)c1` [Compound 1-341, (S)-2-(2-(3-(5-fluoropyridin-2-yloxy)pyrrolidin-1-yl)-5-(2-(methoxymethyl)phenoxy)phenyl)ethanol], the IC50 is 100 to 1000 nM under setting [1], 877 nM under setting [2], 100 to 1000 nM under setting [3] and 748 nM under setting [4].
On to `CCc1ccccc1S(=O)(=O)c1ccc(N2CC[C@H](Oc3ncccc3Cl)C2)c(CCO)c1` [Compound 1-342], for which the IC50 under setting [3] is more than 1000 nM.
As to `CC(=O)c1cc(F)ccc1Oc1ccc(N2CC[C@H](Oc3ccccn3)C2)c(CO)c1` [Compound 1-343], the IC50 runs as follows: under setting [1], 100 to 1000 nM; under setting [2], 199 nM.
For `OCc1cc(Oc2ccc(Cl)c(Cl)c2)ccc1N1CC[C@H](Oc2ccccn2)C1` [Compound 1-344] the same measures were 10 to 100 nM and 65.3 nM.
For `COc1ccccc1Oc1ccc(N2CC[C@H](Oc3ccc(C)cn3)C2)c(CO)c1` [Compound 1-345, (S)-(5-(2-methoxyphenoxy)-2-(3-(5-methylpyridin-2-yloxy)pyrrolidin-1-yl)phenyl)methanol] the same measures were more than 1000 nM and approximately 2450 nM.
Taken in the same sequence, the figures for `COc1ccccc1Oc1ccc(N2CC[C@H](Oc3ncccc3F)C2)c(CO)c1` [Compound 1-346, (S)-(2-(3-(3-fluoropyridin-2-yloxy)pyrrolidin-1-yl)-5-(2-methoxyphenoxy)phenyl)methanol] were 100 to 1000 nM and 612 nM.
Consider `COC(C)c1ccccc1Oc1ccc(N2CC[C@H](Oc3ccc(F)cn3)C2)c(CCO)c1` (stereo partly drawn) [Compound 1-347, 2-(2-((S)-3-(5-fluoropyridin-2-yloxy)pyrrolidin-1-yl)-5-(2-(1-methoxyethyl)phenoxy)phenyl)ethanol], for which the IC50 was 100 to 1000 nM under setting [1], 220 nM under setting [2], 100 to 1000 nM under setting [3] and 198 nM under setting [4].
Take `COCc1ccccc1Oc1ccc(N2CC[C@H](Oc3ccccn3)C2)c(CCO)c1` [Compound 1-348, (S)-2-(5-(2-(methoxymethyl)phenoxy)-2-(3-(pyridin-2-yloxy)pyrrolidin-1-yl)phenyl) ethanol]: the IC50 reads like this: under setting [1], more than 1000 nM; under setting [2], more than 3200 nM.
For `COCc1ccccc1Oc1ccc(N2CC[C@H](Oc3ccc(C)cn3)C2)c(CCO)c1` [Compound 1-349, (S)-2-(5-(2-(methoxymethyl)phenoxy)-2-(3-(5-methylpyridin-2-yloxy)pyrrolidin-1-yl)phenyl)ethanol] the same measures were 100 to 1000 nM and 908 nM.
In the case of `COCc1ccccc1Oc1ccc(N2CC[C@H](Oc3ncccc3C)C2)c(CCO)c1` [Compound 1-350, (S)-2-(5-(2-(methoxymethyl)phenoxy)-2-(3-(3-methylpyridin-2-yloxy)pyrrolidin-1-yl)phenyl)ethanol], the IC50 is, setting by setting: under setting [1], 100 to 1000 nM; under setting [2], 311 nM.
For `COCc1ccccc1Oc1ccc(N2CC[C@H](Oc3ncccc3F)C2)c(CCO)c1` [Compound 1-351, (S)-2-(2-(3-(3-fluoropyridin-2-yloxy)pyrrolidin-1-yl)-5-(2-(methoxymethyl)phenoxy)phenyl)ethanol] the same measures were 100 to 1000 nM and 461 nM.
For `CCc1ccccc1Oc1ccc(N2CC[C@H](Oc3ccc(C#N)cn3)C2)c(CO)c1` [Compound 1-352], the IC50 reads like this: under setting [1], 100 to 1000 nM; under setting [2], 974 nM.
For `CC(C)c1ccccc1Oc1ccc(N2CC[C@H](Oc3ccc(C#N)cn3)C2)c(CO)c1` [Compound 1-353], the IC50 is, setting by setting: under setting [1], 10 to 100 nM; under setting [2], 26.8 nM.
For `OCCc1ccc(C(O)c2ccccc2Cl)cc1N1CC[C@H](Oc2ncccc2Cl)C1` (stereo partly drawn) [Compound 1-354, 2-(4-((2-chlorophenyl)(hydroxy)methyl)-2-((S)-3-(3-chloropyridin-2-yloxy)pyrrolidin-1-yl)phenyl)ethanol] the same measures were more than 1000 nM and 1010 nM.
Taken in the same sequence, the figures for `COC(C)c1ccccc1Oc1ccc(N2CC[C@H](Oc3ccc(C)cn3)C2)c(CCO)c1` (stereo partly drawn) [Compound 1-355, 2-(5-(2-(1-methoxyethyl)phenoxy)-2-((S)-3-(5-methylpyridin-2-yloxy)pyrrolidin-1-yl)phenyl)ethanol] were 100 to 1000 nM and 173 nM.
Taken in the same sequence, the figures for `N#Cc1cccc(C(O)c2ccc(N3CC[C@H](Oc4ncccc4Cl)C3)c(CCO)c2)c1` (stereo partly drawn) [Compound 1-356, 3-((4-((S)-3-(3-chloropyridin-2-yloxy)pyrrolidin-1-yl)-3-(2-hydroxyethyl)phenyl)(hydroxy)methyl)benzonitrile] were more than 1000 nM and more than 3200 nM.
Take `COC(C)c1ccccc1Oc1ccc(N2CC[C@H](Oc3ccccn3)C2)c(CCO)c1` (stereo partly drawn) [Compound 1-357, 2-(5-(2-(1-methoxyethyl)phenoxy)-2-((S)-3(pyridin-2-yloxy)pyrrolidin-1-yl)phenyl)ethanol]: the IC50 was 100 to 1000 nM under setting [1] and 312 nM under setting [2].
Regarding `CCc1c(Oc2ccc(F)c(CO)c2)ncnc1N1CC[C@H](Oc2ncccc2Cl)C1` [Compound 1-359, (S)-(5-(6-(3-(3-chloropyridin-2-yloxy)pyrrolidin-1-yl)-5-ethylpyrimidin-4-yloxy)-2-fluorophenyl)methanol], the “hTRPV3 (nM) (Phase 1)” value (Phase 1 current) was “Agonist (Phase 1)”.
Consider `O=C(c1ccc(CCO)c(N2CC[C@H](Oc3ncccc3Cl)C2)c1)c1ccccc1Cl` [Compound 1-360, (S)-(2-chlorophenyl)(3-(3-(3-chloropyridin-2-yloxy)pyrrolidin-1-yl)-4-(2-hydroxyethyl)phenyl)methanone], for which the IC50 by setting is: under setting [1], 100 to 1000 nM; under setting [2], 770 nM.
Taken in the same sequence, the figures for `CCc1ccccc1Oc1ccc(N2CC[C@H](Oc3ccc(C#N)cn3)C2)c(CCO)c1` [Compound 1-361] were 100 to 1000 nM and 117 nM.
In the case of `CC(C)c1ccccc1Oc1ccc(N2CC[C@H](Oc3ccc(C#N)cn3)C2)c(CCO)c1` [Compound 1-362], the IC50 under setting [1] is 10 to 100 nM and the IC50 under setting [2] was determined as 61.2 nM.
Consider `COc1ccccc1N1CCC(Nc2ncc(C(F)(F)F)cc2Cl)C1` (centres unmarked) [Compound 1-370, 3-chloro-N-(1-(2-methoxyphenyl)pyrrolidin-3-yl)-5-(trifluoromethyl)pyridin-2-amine], for which the IC50 under setting [1] is more than 1000 nM.
In the case of `Cc1ccccc1N1CCC(Nc2ncc(C(F)(F)F)cc2Cl)C1` (centres unmarked) [Compound 1-371, 3-chloro-N-(1-o-tolylpyrrolidin-3-yl)-5-(trifluoromethyl)pyridin-2-amine], the IC50 by setting is: under setting [1], more than 1000 nM; under setting [3], more than 1000 nM.
Take `NC(=O)c1cc(-c2ccccc2)ccc1N1CC[C@H](Nc2ccc(C(F)(F)F)cn2)C1` [Compound 1-372, (S)-4-(3-(5-(trifluoromethyl)pyridin-2-ylamino)pyrrolidin-1-yl)biphenyl-3-carboxamide]: the IC50 under setting [1] is more than 1000 nM and the IC50 under setting [3] is more than 1000 nM.

Source of the values: US12435061B2 (priority 2020, dated 2025).
